Patent US20240325412A1, “COMBINATIONS” (Recurium IP Holdings, LLC, priority 2021, published 2024)

Assays:
HL-60 cells [1] = experiment: CellTiter-Glo Luminescent Cell Viability Assay, HL-60; assay type: cell-based; details: Homo sapiens, 72 h, Compound (1A) 40 nM, Compound (B) 120 nM, Azacitidine 1500 nM, alone or combined
Experimental: (§1) Cell proliferation was measured using the CellTiter-Glo® Luminescent Cell Viability Assay. The assay involved the addition of a single reagent (CellTiter-Glo® Reagent) directly to cells cultured in serum-supplemented medium. OPM-2, MOLM-13 and HL-60 cells were cultured according to ATCC recommendations and were seeded at 10,000 cells per well.
(§2) Compound (1 A), Compound (B) and Dexamethasone or Azacitidine were prepared as a DMSO stock solution (10 mM). For OPM-2 cell line, compounds were tested in triplicate using Dexamethasone; MOLM-13 and HL-60 cell lines compound were tested in triplicate using Azacitidine. Plates were incubated at 37° C., 5% CO2 for 72 h and then equilibrated at room temperature (RT) for approximately 30 min. An equal-volume amount of CellTiter-Glo® Reagent (100 μL) was added to each well. Plates were mixed for 2 min on an orbital shaker to induce cell lysis and then incubated at RT for 10 min to stabilize the luminescent signal. Luminescence (RLU (relative light unit)) was recorded using a SpectraMAX, M5e plate reader according to CellTiter-Glo protocol. Percent inhibition was calculated using the following formula: % inhibition=(RLU*100/(RLU of the cell background)).

HL-60 cells [2] = experiment: HL-60 leukemia xenograft model; assay type: in vivo, Mice; details: HL-60 xenograft, Compound (1A) 25 mg/kg p.o. qd×21, Compound (B) 30 mg/kg p.o., azacitidine 1 mg/kg IP 5 days on 2 days off
Experimental: Mice were inoculated with HL-60 cells subcutaneously on the right flank with the single cell suspension of 95% viable tumor cells (1×10^7) in 100 μL IMDM Matrigel mixture (1:1 ratio) without serum for the tumor development. The treatment was started when the mean tumor size reached approximately 214 mm^3, with individual tumor size ranging from 185-245 mm^3. Animals were randomly distributed into treatment groups of 10 animals each and dosed with vehicle and indicated compounds at indicated dosage and frequency shown in FIG. 5 and Table 4. In FIG. 5, the bottom line is Compound (1A) 25 mg/kg p.o. qd×21+Compound (B) 30 mg/kg p.o. pd×21+azacitidine 1 mg/kg IP 5 days on 2 days off×3 cycle, the second from the bottom line is Compound (1A)+Compound (B), the third from the bottom line is Compound (1A)+azacytidine, the fourth from the bottom line is Compound (1A), the top line is Vehicle, the second from the top line is Compound (B), and the remaining two lines are azacytidine (indicated with triangles) and Compound (B)+azacytidine (indicated with diamonds). Tumor volumes were evaluated twice per week to calculate tumor volume over time, and mice were weighed twice per week as a surrogate for signs of toxicity. Tumor growth inhibition (TGI) was calculated using the following equation TGI=(1−(Td−T0)/(Cd−C0))×100%. Td and Cd are the mean tumor volumes of the treated and control animals, and T0 and C0 are the mean tumor volumes of the treated and control animals at the start of the experiment. The tumor regression was defined as individual tumor volume (TV) decrease (terminal TV compared to initial TV). FIG. 5 and Table 4 illustrate that single agent, double agent and triple treatment of Compound (1A) at 25 mg/kg, Compound (B) at 30 mg/kg and azacitidine at 1 mg/kg.

MOLM-13 cells = experiment: CellTiter-Glo Luminescent Cell Viability Assay, MOLM-13; assay type: cell-based; details: Homo sapiens, 72 h, Compound (1A) 4 nM, Compound (B) 12 nM alone / 120 nM in combinations, Azacitidine 300 nM
Experimental: as §1, §2

OPM-2 cells [3] = experiment: OPM-2 multiple myeloma xenograft model; assay type: in vivo, Mice; details: OPM-2 xenograft, Compound (1A) 25 mg/kg, Compound (B) 30 mg/kg, Bortezomib 0.5 mg/kg (text: 100 and 60 mg/kg p.o. qd×21, IP BIW)
Experimental: Mice were inoculated with OPM-2 cells subcutaneously on the right flank with the single cell suspension of 95% viable tumor cells (1×10^7) in 100 μL IMDM Matrigel mixture (1:1 ratio) without serum for the tumor development. The treatment was started when the mean tumor size reached approximately 200 mm^3, with individual tumor size ranging from 185-225 mm^3. Animals were randomly distributed into treatment groups of 10 animals each and dosed with vehicle and indicated compounds at indicated dosage and frequency shown in FIG. 6 and Table 5. In FIG. 6, the bottom line is Compound (1A) 100 mg/kg p.o. qd×21+Compound (B) 60 mg/kg p.o. pd×21+Bortezomib 0.5 mg/kg IP BIW (twice a week)×3, the second from the bottom line is Compound (1A)+Compound (B), the third from the bottom line is Compound (B)+Bortezomib, the fourth from the bottom line is Compound (B), the top line is Vehicle, the second from the top is Bortezomib, the third from the top line (indicted with squares) is Compound (1A) and the fourth from the top line is Compound (1A)+Bortezomib. Tumor volumes were evaluated twice per week to calculate tumor volume over time, and mice were weighed twice per week as a surrogate for signs of toxicity. Tumor growth inhibition (TGI) was calculated using the following equation TGI=(1−(Td−T0)/(Cd−C0))×100%. Td and Cd are the mean tumor volumes of the treated and control animals, and T0 and C0 are the mean tumor volumes of the treated and control animals at the start of the experiment. The tumor regression was defined as individual tumor volume (TV) decrease (terminal TV compared to initial TV). FIG. 6 and Table 5 illustrate that single agent, double agent, and triple treatment of Compound (1A) at 100 mg/kg, Compound (B) at 60 mg/kg and bortezomib at 0.5 mg/kg.

KMS-12-BM cells = experiment: KMS-12-BM multiple myeloma xenograft model; assay type: in vivo, Mice; details: KMS-12-BM xenograft, Compound (1A) 25 mg/kg, Compound (B) 30 mg/kg, Dexamethasone 1 mg/kg (text: 100 and 60 mg/kg)
Experimental: Mice were inoculated with KMS-12-BM cells subcutaneously on the right flank with the single cell suspension of 95% viable tumor cells (1×10^7) in 100 μL IMDM Matrigel mixture (1:1 ratio) without serum for the tumor development. The treatment was started when the mean tumor size reached approximately 193 mm^3, with individual tumor size ranging from 185-220 mm^3. Animals were randomly distributed into treatment groups of 10 animals each and dosed with vehicle and indicated compounds at indicated dosage and frequency shown in FIG. 7 and Table 6. In FIG. 7, the bottom line is Compound (1A) 100 mg/kg p.o. qd×21+Compound (B) 60 mg/kg p.o. pd×21+Dexamethasone 1 mg/kg IP 5 days on 2 days off ×3, the second from the bottom line is Compound (1A)+Compound (B), the third from the bottom line is Compound (B)+Dexamethasone, the fourth from the bottom line (indicated with triangles) is Compound (B), the top line is Vehicle, the second from the top line is Dexamethasone, the third from the top line is Compound (1A) and the remaining line is Compound (1A)+Dexamethasone. Tumor volumes were evaluated twice per week to calculate tumor volume over time, and mice were weighed twice per week as a surrogate for signs of toxicity. Tumor growth inhibition (TGI) was calculated using the following equation TGI=(1−(Td−T0)/(Cd−C0))×100%. Td and Cd are the mean tumor volumes of the treated and control animals, and T0 and C0 are the mean tumor volumes of the treated and control animals at the start of the experiment. The tumor regression was defined as individual tumor volume (TV) decrease (terminal TV compared to initial TV). The percent tumor regression was calculated using the formula: (1−(Td/T0))×100%.

OPM-2 cells [4] = experiment: CellTiter-Glo Luminescent Cell Viability Assay, OPM-2; assay type: cell-based; details: Homo sapiens, 72 h, Compound (1A) 1500 nM, Compound (B) 300 nM, Dexamethasone 100 nM, alone or combined
Experimental: as §1, §2

[5] = test system: MDA-MB-436 cells (TNBC breast cancer cell line); experiment: MDA-MB-436 triple negative breast cancer xenograft model; assay type: in vivo, Mice; details: MDA-MB-436 xenograft; Compound (1A) 200 mg/kg p.o. qd×40, Compound (B) 60 mg/kg p.o. qd×40; day 40
Experimental: Mice were inoculated with MDA-MB-436 cells (TNBC breast cancer cell line) subcutaneously on the right flank with the single cell suspension of 95% viable tumor cells (1×10^7) in 100 μL DMDM Matrigel mixture (1:1 ratio) without serum for the tumor development. The treatment was started when the mean tumor size reached approximately 210 mm^3 for each model (with individual tumor volumes between 180-240 mm^3). Animals were randomly distributed into treatment groups of 8 animals each and dosed with vehicle and indicated compounds at indicated dosage and frequency shown in FIG. 8 and Table 7. In FIG. 8, the top line (indicated with circles) is Vehicle control, the second from the top line (indicated with diamonds) is Compound (1A) (200 mg/kg 10 mL/kg p.o. qd×40) and the third line from the top (indicated with triangles) Compound (B) (60 mg/kg 10 mL/kg p.o. qd×40). The bottom line (indicated with circles) is Compound (1A) (200 mg/kg 10 mL/kg p.o. qd×40)+Compound (B) (60 mg/kg 10 mL/kg p.o. qd×40). Tumor volumes were evaluated twice per week to calculate tumor volume over time, and mice were weighed twice per week as a surrogate for signs of toxicity. Tumor growth inhibition (TGI) was calculated using the following equation TGI=(1−(Td−T0)/(Cd−C0))×100%. […]

Nc1ncn([C@@H]2O[C@H](CO)[C@@H](O)[C@H]2O)c(=O)n1 [Azacitidine, reference compound]
inhibition at 1.5 µM (HL-60 cells [1]): 2.3%
TGI % (DAY 18) (HL-60 cells [2]): 16%
inhibition at 0.3 µM (MOLM-13 cells): 10.7%

CC(C)C[C@H](NC(=O)[C@H](Cc1ccccc1)NC(=O)c1cnccn1)B(O)O [Bortezomib, reference compound]
TGI % (DAY 17) (OPM-2 cells [3]): 0%

CC1(C)CCC(CN2CCN(c3ccc(C(=O)NS(=O)(=O)c4ccc(NC[C@H]5CC[C@](C)(O)CC5)c([N+](=O)[O-])c4)c(Oc4cnc5[nH]ccc5c4)c3)CC2)=C(C23CC(C(F)F)(C2)C3)C1 [Compound (1A)]
TGI % (DAY 14) (KMS-12-BM cells): 62.8%
TGI % (DAY 17) (OPM-2 cells [3]): 18%
inhibition at 1.5 µM (OPM-2 cells [4]): 43%
TGI % [5]: 60%
inhibition at 0.04 µM (HL-60 cells [1]): 20.4%
TGI % (DAY 18) (HL-60 cells [2]): 25%
inhibition at 0.004 µM (MOLM-13 cells): 35.4%

C=CCn1c(=O)c2cnc(Nc3ccc(N4CCN(C)CC4)cc3)nc2n1-c1ccc2c(n1)[C@@](O)(CC)CC2 [Compound (B)]
TGI % (DAY 14) (KMS-12-BM cells): 74.5%
TGI % (DAY 17) (OPM-2 cells [3]): 33%
inhibition at 0.3 µM (OPM-2 cells [4]): 4.3%
TGI % [5]: 55%
inhibition at 0.12 µM (HL-60 cells [1]): 5.6%
TGI % (DAY 18) (HL-60 cells [2]): 6%
inhibition at 0.012 µM (MOLM-13 cells): 38.6%

C[C@@H]1C[C@H]2[C@@H]3CCC4=CC(=O)C=C[C@]4(C)[C@@]3(F)[C@@H](O)C[C@]2(C)[C@@]1(O)C(=O)CO [Dexamethasone, reference compound]
TGI % (DAY 14) (KMS-12-BM cells): 22.5%
inhibition at 0.1 µM (OPM-2 cells [4]): 32%
